The source of these data is patent US20130280188A1, “SELF-TANNING COSMETIC” (KAO CORPORATION, priority 2012, published 2013).

In assay [1] the target is T1, olfactory receptor OR5K1 (Homo sapiens, UniProt Q8NHB7).
T1 construct: expressed in transfected cells; host or cells: HEK293
T1 sequence (Q8NHB7 1-308): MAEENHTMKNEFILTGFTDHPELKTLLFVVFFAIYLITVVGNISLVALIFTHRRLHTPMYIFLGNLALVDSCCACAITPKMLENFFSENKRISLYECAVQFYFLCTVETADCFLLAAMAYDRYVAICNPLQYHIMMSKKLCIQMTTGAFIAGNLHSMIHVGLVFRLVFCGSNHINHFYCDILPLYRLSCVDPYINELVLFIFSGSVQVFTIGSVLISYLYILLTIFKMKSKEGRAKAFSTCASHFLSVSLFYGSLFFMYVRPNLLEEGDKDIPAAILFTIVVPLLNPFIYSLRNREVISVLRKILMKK
Kind of assay: Luciferase reporter gene assay of olfactory receptor response in HEK293 cells. It counts as cell-based. The note with it: for Concentration-dependent response of OR5K1: 0, 3, 10, 30, 100, 300, and 1000 μM, HEK293 cells with RTP1S variant, FIG. 5. The source says:
Human olfactory receptors were cloned based on sequence information registered in GenBank by PCR using human genomic DNA female (G1521: Promega Corporation) as a template. Each gene amplified by FCR was incorporated into pENTR vector (Invitrogen Inc.) in accordance with the manual and recombined to the NotI and AscI sites located downstream of a Flag-Rho tag sequence in a pME18S vector using the NotI and AscI sites present on the pENTR vector.
An RTP1S variant gene (SEQ ID NO: 3) encoding an RTP1S variant (SEQ ID NO: 4) was incorporated into the EcoRI and XhoI sites of a pME18S vector.
HEK293 cells expressing 373 types of human olfactory receptors were produced. A reaction solution having a composition shown in Table 2 was prepared, left to stand in a clean bench for 15 min and then was dispensed in each well of a 96 well plate (Becton, Dickinson and Company). Subsequently, HEK293 cells (100 μL, 3×10^5 cells/cm^2) were seeded in each well and cultured in an incubator at 37° C. under 5 mass % CO2 for 24 hours.
An olfactory receptor expressed in HEK293 cells couples with endogenous Gas in the cells to activate adenylate cyclase and thereby increases the amount of intracellular cAMP. In this study, the odor response was measured by luciferase reporter gene assay which monitors an increase in amount of intracellular cAMP as the luminescence value derived from a firefly luciferase gene (fluc2P-CRE-hygro). A Renilla luciferase gene was fused with the downstream of a CMV promoter (hRluc-CMV) and was also introduced to HEK293 cells as an internal standard to correct errors in gene transfer efficiency and number of cells.
The culture medium was removed from the culture produced in the above 3), and 75 μL of a solution prepared with a CD293 medium (Invitrogen Inc.) so as to contain a pyrazine derivative (1 mM 2,6-dimethylpyrazine) was added thereto. The cells were cultured in a CO2 incubator for 2.5 hours to sufficiently express the luciferase gene in the cells. The luciferase activity was measured with a Dual-Glo™ luciferase assay system (Promega Corporation) in accordance with the operating manual of the system. The fold increases were calculated by dividing the luminescence value derived from firefly luciferase induced by stimulation with the odor substances by the luminescence value in cells not stimulated with the odor substances and were used as an index of response strength.
Olfactory receptor OR5K1 (SEQ ID NO: 2) was expressed in HEK293 cells together with an RTP1S variant (SEQ ID NO: 4) by the same procedure as in Test Example 3, and the dependency of the response on the concentration (0, 3, 10, 30, 100, 300, and 1000 μM) in various pyrazine compounds was investigated. The pyrazine compounds used in this Example were pyrazine and pyrazine derivatives selected from the group consisting of 2-methylpyrazine, 2,3-dimethylpyrazine, 2,5-dimethylpyrazine, 2,3,5-trimethylpyrazine, 2,3,5,6-tetramethylpyrazine, and 2-ethylpyrazine.
For orientation: A reporter such as luciferase makes a cellular process visible.

Assay [2] has as its target T1, olfactory receptor OR5K1. Kind of assay: Antagonist activity against OR5K1 response to 2,6-dimethylpyrazine (luciferase assay, HEK293 cells). In kind it is cell-based. As to conditions: HEK293 cells expressing OR5K1; for Receptor response-inhibiting rate: 2,6-dimethylpyrazine 1 mM and test material 300 μM (cytotoxic perfumes: 333 μM and 100 JAM); for Antagonist activity on the response of OR5K1 to pyrazine derivatives: 2,6-dimethylpyrazine 1 mM and test material 300 μM. As to the method: Antagonist activities of 174 test materials against olfactory receptor OR5K1 were investigated by examining response of OR5K1 to a pyrazine derivative.
2,6-Dimethylpyrazine (1 mM) and each of the test materials (300 μM) were added to HEK293 cells expressing olfactory receptor OR5K1 by the same procedure as in Test Example 4, and the response of the olfactory receptor to 2,6-dimethylpyrazine was measured to evaluate a change in response of the receptor due to addition of the test material. Perfumes recognized to have cytotoxicity were re-evaluated using a mixture of 333 μM of 2,6-dimethylpyrazine and 100 JAM of a test material.
The receptor response-inhibiting rate of a test material was calculated as follows. The receptor activity (X−Y) by stimulation with 2,6-dimethylpyrazine alone was determined by subtracting the luminescence value (Y) in cells to which the receptor was introduced but were not stimulated with 2,6-dimethylpyrazine from the luminescence value (X) derived from firefly luciferase induced by odor stimulation with 2,6-dimethylpyrazine alone. Similarly, the receptor activity (Z−Y) in the presence of a test material was determined by subtracting the luminescence value (Y) in cells not stimulated with 2,6-dimethylpyrazine from the luminescence value (Z) stimulated with a mixture of 2,6-dimethylpyrazine and the test material. The reduction rate of the receptor activity (Z−Y) in the presence of a test material to the receptor activity (X−Y) by stimulation with 2,6-dimethylpyrazine alone was calculated by the following computation expression:
Inhibition rate (%)={1−(Z−Y)/(X−Y)}×100,
to determine the receptor response-inhibiting rate of the test material. In the measurement, multiple independent experiments were performed in duplicate, and the average of each experiment was used.

With `Cc1nc(C)c(C)nc1C` [2,3,5,6-tetramethylpyrazine], the “Concentration-dependent response of OR5K1” value in assay [1] is reported as “concentration-dependently responded”.
On the same count and under the same terms, the value for `Cc1cnc(C)c(C)n1` [2,3,5-trimethylpyrazine] was “concentration-dependently responded”; that for `Cc1nccnc1C` [2,3-dimethylpyrazine] was “concentration-dependently responded”.
Consider `Cc1cnc(C)cn1` [2,5-Dimethyl pyrazine, 2,5-dimethylpyrazine], for which, in assay [1], the “Concentration-dependent response of OR5K1” value is “concentration-dependently responded”.
Take `Cc1cncc(C)n1` [2,6-Dimethyl pyrazine, 2,6-dimethylpyrazine]: the “Concentration-dependent response of OR5K1” value in assay [1] is “concentration-dependently responded”. Moreover, in assay [1] (1 mM, screen of 373 types of human olfactory receptors in HEK293 cells, FIG. 4), the “Response of olfactory receptor OR5K1” value is “responded”.
Regarding `Cc1cnccn1` [2-Methyl pyrazine, 2-methylpyrazine], in assay [1], the “Concentration-dependent response of OR5K1” value was “concentration-dependently responded”.
Take `CCc1cnccn1` [2-ethylpyrazine]: in assay [1], the “Concentration-dependent response of OR5K1” value is listed as “concentration-dependently responded”.
For `CCC(=CCC1CC=C(C)C1(C)C)CO` (stereo not drawn) [Bangalol, 2-ethyl-4-(2,2,3-trimethyl-3-cyclopenten-1-yl)-2-buten-1-ol], in assay [2], the Receptor response-inhibiting rate is listed as 75% or more and the “Antagonist activity on the response of OR5K1 to pyrazine derivatives” value (from here on “Antagonist activity on the response”) was “antagonist activity”.
For `CC(C=O)Cc1ccc(C(C)C)cc1` (stereo not drawn) [Cyclamen aldehyde, 2-methyl-3-(4-iso-propylphenyl)propanal] the same measures were 75% or more and “antagonist activity”.
Regarding `CC(C)CC1CC(C)(O)CCO1` (stereo not drawn) [Florosa, 4-methyl-2-(2-methylpropyl)tetrahydro-2H-4-pyranol], in assay [2], the Receptor response-inhibiting rate entry is recorded as “Not inhibited” and the “Antagonist activity on the response” value was “no antagonist activity”.
For `CCCCCC1C(=O)CCC1CC(=O)OC` (stereo not drawn) [Methyl dihydrojasmonate, methyl dihydrojasmonate] the same measures were “Not inhibited” and “no antagonist activity”.
In the case of `CC(=O)CCc1ccc(O)cc1` [Raspberry ketone, 4-(p-hydroxyphenyl)-2-butanone], in assay [2], the Receptor response-inhibiting rate result is given as “Not inhibited” and the “Antagonist activity on the response” value is recorded as “no antagonist activity”.
`CCC=C(C)C(O)CCCCC` (stereo not drawn) [Undecavertol, 4-methyl-3-decen-5-ol]: in assay [2], the Receptor response-inhibiting rate is listed as 75% or more and the “Antagonist activity on the response” value was “antagonist activity”.
`c1cnccn1` [pyrazine]: the “Concentration-dependent response of OR5K1” value in assay [1] was “did not respond”.
